Source: PMC4308083, “Cytokine-Induced Loss of Glucocorticoid Function: Effect of Kinase Inhibitors, Long-Acting β2-Adrenoceptor Agonist and Glucocorticoid Receptor Ligands” (PLoS ONE, 2015)
Read-outs that look alike come from different tables or passages of the source.

Columns and labels:
[1] = biological target: T1, glucocorticoid receptor (NR3C1) (Homo sapiens, UniProt P04150); assay: 2×GRE luciferase reporter activation by NR3C1 ligands in BEAS-2B cells; type: cell-based; settings: for EC50: pEC50 (M)
T1 construct: BEAS-2B cells stably transfected with a glucocorticoid response element (2×GRE) driven luciferase reporter plasmid; endogenous in cells; host or cells: BEAS-2B human bronchial epithelial cells stably carrying a 2×GRE luciferase reporter
T1 sequence (P04150 1-777): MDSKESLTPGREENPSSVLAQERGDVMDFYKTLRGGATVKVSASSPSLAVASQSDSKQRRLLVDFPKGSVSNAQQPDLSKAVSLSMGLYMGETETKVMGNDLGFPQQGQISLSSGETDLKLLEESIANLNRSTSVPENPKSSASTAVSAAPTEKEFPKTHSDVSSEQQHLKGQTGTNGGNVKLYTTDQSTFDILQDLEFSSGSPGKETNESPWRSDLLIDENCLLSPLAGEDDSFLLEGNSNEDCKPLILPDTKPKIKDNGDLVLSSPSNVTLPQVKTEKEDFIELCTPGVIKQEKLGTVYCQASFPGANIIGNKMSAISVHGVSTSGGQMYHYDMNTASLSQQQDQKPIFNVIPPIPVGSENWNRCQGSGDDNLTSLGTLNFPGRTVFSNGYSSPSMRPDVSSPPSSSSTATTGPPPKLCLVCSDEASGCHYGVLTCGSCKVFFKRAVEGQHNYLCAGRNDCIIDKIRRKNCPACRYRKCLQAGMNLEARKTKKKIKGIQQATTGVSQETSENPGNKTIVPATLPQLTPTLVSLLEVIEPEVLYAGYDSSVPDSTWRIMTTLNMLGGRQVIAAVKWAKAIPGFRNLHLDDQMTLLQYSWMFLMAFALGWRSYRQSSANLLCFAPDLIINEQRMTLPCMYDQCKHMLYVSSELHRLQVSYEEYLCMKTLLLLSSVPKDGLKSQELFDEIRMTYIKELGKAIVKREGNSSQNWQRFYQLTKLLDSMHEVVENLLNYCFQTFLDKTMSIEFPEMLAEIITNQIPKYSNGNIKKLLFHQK
Description: (§1) BEAS-2B cells stably transfected with a glucocorticoid response element (2×GRE) driven luciferase reporter plasmid, pGL3.neo.TATA.neo [23], were cultured in medium containing 0.25 mg/ml G-418 (Promega, Madison, WI). Cells were grown to confluence in 24 or 48 well plates and incubated overnight in serum-free media prior to experiments. Cells were harvested in reporter lysis buffer and luciferase assays performed according to the manufacturer’s instructions (Firefly Luciferase Assay Kit; Biotium; Hayward, CA) using a 20/20n luminometer (Promega).
Cells were harvested 6 h after NR3C1 ligand addition for luciferase assay.
(§2) Cells were harvested after 6 h for luciferase assays. Data (n = 7), expressed as fold activation, are plotted as means ± S.E. Lines of best fit were added in panel B. Statistical analyses were performed by ANOVA with a Dunnett’s test comparing each NR3C1 ligand alone versus in the presence of TNF and/or Form. *, P<0.05; **, P<0.01; ***, P<0.001.

[2] = system: CDKN1C, DUSP1, RGS2 and TSC22D3 mRNA in BEAS-2B cells; assay: RT-PCR of glucocorticoid-inducible gene expression in BEAS-2B cells
Description: Cells were harvested 6 h after Dex addition.
BEAS-2B cells were pre-treated for 30 min with either 10 or 3 μM of the JNK MAPK inhibitor JNK inhibitor VIII (JNK) or 10 μM of the IKK2 inhibitor PS-1145 (PS), before addition of 10 ng/ml tumor necrosis factor-α (TNF).
Cells were harvested 6 h after NR3C1 ligand addition.

2×GRE reporter = assay: Modulation of dexamethasone/NR3C1 ligand-induced 2×GRE reporter activation (kinase inhibitors, TNF, formoterol) in BEAS-2B cells; type: cell-based, human; settings: 30 min pre-treatment, dexamethasone, 6 h (Fig. 3B, Fig. 4); JNK inhibitor VIII only at 30 μM; PKC inhibitors above 1 μM
Description: as §1
Data (n = 7), expressed as a percentage of Dex activation, are plotted as means ± S.E. BEAS-2B 2×GRE cells were pre-treated for 30 min with the indicated concentrations of B. PS or JNK or C. JNK in the presence or absence of 10 μM PS, before addition of 10 ng/ml TNF. After 1 h, 10 μM Dex was added and cells harvested 6 h later for luciferase assay. […] D+T indicates Dex plus TNF treatment.
Data (n = 3–4), expressed as fold activation, are plotted as means ± S.E. D+T indicates Dex plus TNF treatment.
as §2

AKT1 phosphorylation = assay: Western blot of AKT1 phosphorylation in BEAS-2B cells; type: cell-based; settings: Homo sapiens, 30 min pre-treatment, TNF 10 ng/ml 30 min, western blot (S2 Fig.), read-out: EC50 for block of AKT1 phosphorylation
Excerpt: Cells were lysed in 1× Laemmli buffer supplemented with phosphatase inhibitors (Sigma-Aldrich) and 1× complete protease inhibitor cocktail (Roche; Indianapolis, IN), size fractionated on 12% acrylamide gels and subsequently electro-transferred onto Hybond enhanced chemiluminescent membranes (GE Healthcare; Waukesha, WI). Membranes were blocked in 5% milk in tris-buffered saline containing 1% tween 20 and probed with antibodies against phospho-jun proto-oncogene (pJUN; pc-Jun) (9164; Cell Signaling Technology; Danvers, MA), nuclear factor of kappa light polypeptide gene enhancer in B-cells inhibitor, alpha (NFKBIA; IκBα) (sc-371; Santa Cruz Biotechnology; Dallas, TX), phospho-NFKBIA (9246; Cell Signaling Technology), phospho-AKT1 (9271S; Cell Signaling Technology), AKT (9272S; Cell Signaling Technology) and GAPDH (4699–9555(ST); AbD Serotec; Raleigh, NC). After washing, membranes were incubated with horseradish peroxidase-conjugated anti-rabbit (111–035–003; Jackson ImmunoResearch Laboratories Inc; West Grove, PA) or anti-mouse immunoglobulin (115–035–003; Jackson ImmunoResearch Laboratories Inc). Detection was by enhanced chemiluminescence (Pierce ECL Western Blotting Substrate; Thermo Fisher Scientific Inc.; Rockford, IL) and visualization by autoradiography.
Cells were harvested after 30 min for western blotting and probed for phospho v-akt murine thymoma viral oncogene homolog 1 (pAKT1), AKT1 and glyceraldehyde 3-phosphate dehydrogenase (GAPDH). (PDF) Click here for additional data file.

[3] = BEAS-2B 2×GRE reporter, TNF 10 ng/ml pre-treatment 1 h, 6 h, percent of 1 μM dexamethasone
[4] = BEAS-2B 2×GRE reporter, no TNF, 6 h, percent of 1 μM dexamethasone
[5] = 100 nM ligand, 10 nM formoterol, 6 h (Fig. 8)

CCCC1O[C@@H]2C[C@H]3[C@@H]4CCC5=CC(=O)C=C[C@]5(C)[C@H]4[C@@H](O)C[C@]3(C)[C@]2(C(=O)CO)O1 (some centres unmarked) [Budesonide]
E max (% Dex), Naive [1]: 109.9 ± 2.6 % Dex

C[C@]12C=CC(=O)C=C1CC[C@@H]1[C@@H]2[C@@H](O)C[C@@]2(C)[C@H]1C[C@H]1O[C@@H](C3CCCCC3)O[C@]12C(=O)CO [Des-ciclesonide]
Agonist type on 2×GRE reporter relative to dexamethasone ([1]; BEAS-2B 2×GRE reporter): partial agonists
E max (% Dex), +TNF [1, 3]: 43.1 ± 1.0 % Dex
E max (% Dex), Naive [1, 4]: 76.0 ± 2.0 % Dex
EC50 ([1]; +TNF, BEAS-2B 2×GRE reporter, TNF 10 ng/ml pre-treatment 1 h, 6 h): 3.16e-09 M
EC50 ([1]; Naive, BEAS-2B 2×GRE reporter, no TNF, 6 h): 2.51e-09 M
RGS2 mRNA expression in the presence of formoterol relative to dexamethasone [2, 5]: significantly lower
TSC22D3 mRNA fold induction ([2]; 6 h, 1 μM dexamethasone, 100 nM other ligands (Fig. 8, n = 5)): 71 fold

C[C@@H]1C[C@H]2[C@@H]3CCC4=CC(=O)C=C[C@]4(C)[C@@]3(F)[C@@H](O)C[C@]2(C)[C@@]1(O)C(=O)CO [Dexamethasone]
E max (% Dex), +TNF [1, 3]: 58.7 ± 3.2 % Dex
E max (% Dex), Naive [1, 4]: 100 ± 3.2 % Dex

CCC(=O)O[C@]1(C(=O)SCF)[C@H](C)C[C@H]2[C@@H]3C[C@H](F)C4=CC(=O)C=C[C@]4(C)[C@@]3(F)[C@@H](O)C[C@@]21C [Fluticasone Propionate]
E max (% Dex), +TNF [1, 3]: 51.0 ± 2.8 % Dex
E max (% Dex), Naive [1, 4]: 111.2 ± 4.3 % Dex

CN(C)CCCn1cc(C2=C(c3c[nH]c4ccccc34)C(=O)NC2=O)c2ccccc21 [GF109203X]
Effect on dexamethasone-induced 2×GRE reporter activation (concentration-response) (2×GRE reporter): enhanced

C[C@@H]1C[C@H]2[C@@H]3C[C@H](F)C4=CC(=O)C=C[C@]4(C)[C@@]3(F)[C@@H](O)C[C@]2(C)[C@@]1(OC(=O)C1C(C)(C)C1(C)C)C(=O)OCC#N [GW870086X]
Agonist type on 2×GRE reporter relative to dexamethasone ([1]; BEAS-2B 2×GRE reporter): partial agonists
pEC50 (M), +TNF ([1]; BEAS-2B 2×GRE reporter, TNF 10 ng/ml pre-treatment 1 h, 6 h): 8.0 ± 0.2 * M
E max (% Dex), +TNF [1, 3]: 29.8 ± 1.4 % Dex
pEC50 (M), Naive ([1]; BEAS-2B 2×GRE reporter, no TNF, 6 h): 8.3 ± 0.1 M
E max (% Dex), Naive [1, 4]: 50.1 ± 1.1 % Dex
RGS2 mRNA expression in the presence of formoterol relative to dexamethasone [2, 5]: significantly lower
TSC22D3 mRNA expression in the presence of formoterol, or TNF plus formoterol, relative to dexamethasone [2, 5]: significantly lower

Cn1c2ccccc2c2c3c(c4c5ccccc5n(CCC#N)c4c21)CNC3=O [Gö6976]
Effect on dexamethasone-induced 2×GRE reporter activation (concentration-response) (2×GRE reporter): reduced

O=c1cc(N2CCOCC2)oc2c(-c3ccccc3)cccc12 [LY294002, 2-(4-morpholinyl)-8-phenyl-4H-1-benzopyran-4-one]
EC50 (AKT1 phosphorylation): ~900 nM
Effect on dexamethasone-induced 2×GRE reporter activation (concentration-response) (2×GRE reporter): less effect
